Laboratory results taken from patent US9353072B2, “Antimicrobial substituted thiazoles and methods of use” (Purdue Research Foundation, priority 2012, dated 2016).
Converted amounts (≈) assume the structure as drawn. Like-named read-outs stand apart in the source and are kept apart here. Each block holds one molecule with its values, some of them ahead of it.

How the values were obtained:
MRSA ATCC 43300 = assay: MIC/MBC broth microdilution, MRSA ATCC 43300; type: cell-based, Staphylococcus aureus
Method: (§1) Determination of minimum inhibitory concentration (MIC). The MICs of the lead thiazole compound (compound 1a) and nine derivatives tested against all 18 MRSA strains were determined, in triplicate samples, using the broth microdilution method in accordance with the recommendations contained in the CLSI guidelines.

NRS194 = assay: MIC/MBC broth microdilution, NRS194; type: cell-based; details: Staphylococcus aureus
Method: as §1

MRSA USA400 (NRS123) = assay: MIC/MBC broth microdilution, NRS123 (USA400); type: cell-based; details: Staphylococcus aureus, Table 8, NRS123
Method: as §1

MRSA NRS384 (USA300) = assay: MIC/MBC broth microdilution, NRS384 (USA300); type: cell-based; details: Staphylococcus aureus
Method: as §1

[1] = test system: MRSA ATCC 700699 (NRS1, VISA); assay: MIC/MBC broth microdilution, NRS1 (ATCC 700699); type: cell-based; details: Staphylococcus aureus, Table 8, NRS1 (VISA)
Method: as §1

NRS119 = assay: MIC/MBC broth microdilution, NRS119; type: cell-based; details: Staphylococcus aureus, Table 8, NRS119
Method: as §1

MRSA USA500 (NRS385) = assay: MIC/MBC broth microdilution, NRS385 (USA500); type: cell-based; details: Staphylococcus aureus, Table 8, NRS385
Method: as §1

VISA LIM 3 (NRS37) = assay: MIC/MBC broth microdilution, NRS37 (VISA LIM 3); type: cell-based; details: Staphylococcus aureus, Table 8, NRS37 (VISA)
Method: as §1

NRS107 = assay: MIC/MBC broth microdilution, NRS107; type: cell-based; details: Staphylococcus aureus
Method: as §1

VISA HIP07256 (NRS19) = assay: MIC/MBC broth microdilution, NRS19 (VISA HIP07256); type: cell-based; details: Staphylococcus aureus, Table 8, NRS19 (VISA)
Method: as §1

[2] = Staphylococcus aureus, Table 6, MRSA ATCC 43300, 128 μM down to 1.0 μM, 20 hours, read-out: MIC
[3] = Staphylococcus aureus, Table 4, MRSA ATCC 43300, 64 μM down to 0.5 μM, 37° C., 19 hours, read-out: Minimum Inhibitory Concentration
[4] = Table 5, MRSA NRS384 (USA300), 128 μM down to 1.0 μM, 37° C., 19 hours, read-out: Minimum Inhibitory Concentration

MIC (NRS194; Table 8, read-out: MIC): 4 µM (≈ 1.41 µg/mL)
MIC (MRSA USA400 (NRS123); read-out: MIC): 4 µM (≈ 1.41 µg/mL)
MIC (MRSA NRS384 (USA300); Table 8, NRS384, read-out: MIC): 4 µM (≈ 1.41 µg/mL)
MIC ([1]; triplicates, 20 hours, read-out: MIC): 2 µM (≈ 0.707 µg/mL)
MIC (NRS119; read-out: MIC): 4 µM (≈ 1.41 µg/mL)
MIC (MRSA USA500 (NRS385); read-out: MIC): 4 µM (≈ 1.41 µg/mL)
MIC (VISA LIM 3 (NRS37); read-out: MIC): 4 µM (≈ 1.41 µg/mL)
MIC (NRS107; Table 8, read-out: MIC): 4 µM (≈ 1.41 µg/mL)
MIC (MRSA ATCC 43300; [3]): 4 µM (≈ 1.41 µg/mL)
MIC (MRSA ATCC 43300; Staphylococcus aureus, Table 8, ATCC 43300, read-out: MIC): 4 µM (≈ 1.41 µg/mL)
MIC (VISA HIP07256 (NRS19); read-out: MIC): 4 µM (≈ 1.41 µg/mL)
SMILES: CCCCC#Cc1ccc(-c2nc(C)c(/C(C)=N/NC(=N)N)s2)cc1 [Compound R1, (E)-2-(1-(2-(4-(hex-1-yn-1-yl)phenyl)-4-methylthiazol-5-yl)ethylidene)hydrazinecarboximidamide]
MBC (NRS194; Table 8, read-out: MBC): 4 µM (≈ 1.41 µg/mL)
MBC (MRSA USA400 (NRS123); read-out: MBC): 4 µM (≈ 1.41 µg/mL)
MBC (MRSA NRS384 (USA300); Table 8, NRS384, read-out: MBC): 4 µM (≈ 1.41 µg/mL)
MBC ([1]; read-out: MBC): 2 µM (≈ 0.707 µg/mL)
MBC (NRS119; read-out: MBC): 4 µM (≈ 1.41 µg/mL)
MBC (MRSA USA500 (NRS385); read-out: MBC): 4 µM (≈ 1.41 µg/mL)
MBC (VISA LIM 3 (NRS37); read-out: MBC): 4 µM (≈ 1.41 µg/mL)
MBC (NRS107; Table 8, read-out: MBC): 4 µM (≈ 1.41 µg/mL)
MBC (MRSA ATCC 43300; Staphylococcus aureus, Table 8, ATCC 43300, read-out: MBC): 4 µM (≈ 1.41 µg/mL)
MBC (VISA HIP07256 (NRS19); read-out: MBC): 4 µM (≈ 1.41 µg/mL)

MIC (MRSA ATCC 43300; [3]): > 64 µM
SMILES: CCCCc1ccc(-c2nc(C)c(-c3nnn[nH]3)s2)cc1 [Compound R2, 2-(4-butylphenyl)-4-methyl-5-(1H-tetrazol-5-yl)thiazole]

MIC (MRSA ATCC 43300; [3]): > 64 µM
SMILES: CCCCc1ccc(-c2nc(C)c(C(=O)NNC(=O)c3sc(-c4ccc(CCCC)cc4)nc3C)s2)cc1 [Compound R3, 2-(4-butylphenyl)-N′-(2-(4-butylphenyl)-4-methylthiazole-5-carbonyl)-4-methylthiazole-5-carbohydrazide]

MIC (MRSA ATCC 43300; [3]): > 64 µM
SMILES: CCCCc1ccc(-c2nc(C)c(C(=O)NNC(=N)N)s2)cc1 [Compound R5, 2-(2-(4-butylphenyl)-4-methylthiazole-5-carbonyl)hydrazinecarboximidamide]

MIC (MRSA ATCC 43300; [3]): > 64 µM
SMILES: CCCCc1ccc(-c2nc(C)c(C(N)=O)s2)cc1 [Compound R6, 2-(4-butylphenyl)-4-methylthiazole-5-carboxamide]

MIC (MRSA NRS384 (USA300); [4]): 128 µM (≈ 44.6 µg/mL)
SMILES: CCCCc1ccc(-c2nc(C)c(C(=O)NC[C@@H](O)CO)s2)cc1 [Compound R8, (R)-2-(4-butylphenyl)-N-(2,3-dihydroxypropyl)-4-methylthiazole-5-carboxamide]

MIC (MRSA NRS384 (USA300); [4]): 128 µM (≈ 44.6 µg/mL)
SMILES: CCCCc1ccc(-c2nc(C)c(C(=O)NC[C@H](O)CO)s2)cc1 [Compound R9, (S)-2-(4-butylphenyl)-N-(2,3-dihydroxypropyl)-4-methylthiazole-5-carboxamide]

MIC (MRSA NRS384 (USA300); [4]): 128 µM (≈ 44.2 µg/mL)
SMILES: CCCCc1ccc(-c2nc(C)c(C(=O)NCCN(C)C)s2)cc1 [Compound R10, 2-(4-butylphenyl)-N-(2-(dimethylamino)ethyl)-4-methylthiazole-5-carboxamide]

More lines, now with the values behind:

SMILES: COc1cc(OC)cc(-c2ccc(-c3nc(C)c(C(C)=O)s3)cc2)c1 [Compound M19, 1-(2-(3′,5′-dimethoxy-[1,1′-biphenyl]-4-yl)-4-methylthiazol-5-yl)ethanone]
MIC (MRSA ATCC 43300; Staphylococcus aureus, 20 h): > 128 µM

SMILES: [H]/N=C(/N)NN=C(C)c1sc(-c2cc[nH]n2)nc1C [Compound M20]
MIC (MRSA ATCC 43300; Table 6, MRSA ATCC 43300, 128 μM down to 1.0 μM, 20 hours, read-out: MIC): 8 µM (≈ 2.11 µg/mL)

SMILES: CC(=O)c1sc(-c2ccc(-c3ccc(-c4nc(C)c(C(C)=O)s4)cc3)cc2)nc1C [Compound M21, 1,1′-(2,2′-([1,1′-Biphenyl]-4,4′-diyl)bis(4-methylthiazole-5,2-diyl))diethanone]
MIC (MRSA ATCC 43300; [2]): > 128 µM

SMILES: CC(=O)c1sc(-c2cc[nH]n2)nc1C [Compound M22, 1-(4-Methyl-2-(1H-pyrazol-3-yl)thiazol-5-yl)ethanone]
MIC (MRSA ATCC 43300; [2]): > 128 µM

SMILES: CC(=O)c1sc(-c2ccc(-c3ccc(-c4ccccc4)cc3)cc2)nc1C [Compound M23, 1-(2-([1,1′:4′,1″-Terphenyl]-4-yl)-4-methylthiazol-5-yl)ethanone]
MIC (MRSA ATCC 43300; [2]): > 128 µM

SMILES: C/C(=N/NC(=N)N)c1sc(-c2cc[nH]n2)nc1C [Compound M24, (Z)-2-(1-(4-methyl-2-(1H-pyrazol-3-yl)thiazol-5-yl)ethylidene)hydrazinecarboximidamide]
MIC (MRSA ATCC 43300; [2]): > 128 µM
